Data: patent US12679820B2, “Cocrystals, pharmaceutical compositions thereof, and methods of treatment involving same” (Servier Pharmaceuticals LLC, priority 2017, dated 2026)
Read-outs that look alike come from different tables or passages of the source. One block for each compound: values may come before it.

Columns and labels:
mutant IDH1 = settings: biochemical and cellular assays; cited from earlier work
mutant IDH2 = settings: biochemical and cellular assays; cited from earlier work
[1] = Pharmacokinetics of Compound 1 solid forms in plasma following single PO administration (IV bolus reference) in male Sprague Dawley rats; assay type: in vivo; settings: for AUC(0-inf) / bioavailability: male, rat; for AUC(0-inf) / bioavailability / AUCinf: plasma; for bioavailability: read-out: Absolute % F; for AUCinf: oral gavage 10 mg/kg (as free Compound 1); for AUCinf / Absolute % F: 10 mg/kg; for Absolute % F: oral gavage 10 mg/kg
Protocol: Study Design. Twelve (12) male Sprague Dawley rats (purchased from SLAC Laboratory Animal Co. LTD were randomized into four groups (3 animals per group). The animals were fasted overnight, the forms of Compound 1 shown in Table 24 were administered by oral gavage, and the animals were fed 4 hours post-dose. Each form of Compound 1 was administered as a suspension in water containing 0.5% microcrystalline cellulose and 0.1% Tween 80. The Dose Levels and Dose Concentrations shown in Table 24 are based on the corresponding amount of free Compound 1.
Blood Collection. Blood was serially collected from each animal 0.083 hr, 0.25 hr, 0.5 hr, 1 hr, 2 hr, 4 hr, 8 hr, 24 hr, 48 hr, and 72 hrs post-dose. For each collection, the animal was restrained manually, and approximately 150 μL of blood sample was collected via the tail vein into K2EDTA tubes. The blood samples were put on ice and centrifuged at 2000 g for 5 min to obtain plasma. Plasma samples were stored at approximately −70° C. until analysis.
To enable the calculation of oral bioavailability, Compound 1 was dissolved in a vehicle containing 10% N-Methyl-2-pyrrolidone (NMP), 10% Solutol HS 15, and 80% saline and administered at 1 mg/kg as intravenous (IV) bolus dose to a separate group of male Sprague-Dawley rats, and blood samples were collected at similar time points to those shown above. Further, plasma samples were obtained from the collected blood samples and stored at approximately −70° C. until analysis.
Further, the amorphous solid dispersion of Compound 1, as described in Example 23, was suspended in an aqueous vehicle containing 0.5% methyl cellulose (MC) and 0.2% Tween80 at 0.2 mg/mL concentration and dosed at 1 mg/kg as a single oral dose to a separate group of male Sprague-Dawley rats after an overnight fasting. Blood samples were collected at similar time points to those shown above. Further, plasma was harvested and stored at approximately −70° C. until analysis.
Sample Preparation and Analysis. The concentration of Compound 1 in the plasma samples was determined by LC-MS/MS analysis.
A 20 μL aliquot of each sample was diluted with 200 μL of acetonitrile containing dexamethasone as an internal standard (40 ng/mL). The resulting mixture was vortexed for 2 min and centrifuged at 5800 rpm for 10 min. A 2 μL sample was injected into LC-MS/MS.
Results. Historical data for IV administration of Compound 1 and administration of Compound 1 as a spray dried dispersion are also provided in Table 26. The absolute bioavailability of each form of Compound 1 was determined by dividing the AUCinf of the form in question by the AUCinf obtained by IV administration of Compound 1 and correcting for differences in dose. The measured absolute bioavailability of the citrate and maleate cocrystals, as reported in Table 26, was higher than the measured bioavailability of the other forms of Compound 1.

[2] = Hygroscopicity by Dynamic Vapor Sorption (DVS) analysis; assay type: physicochemical; settings: for water uptake at 80% relative humidity / hygroscopicity: DVS at 25° C.; for water uptake at 80% relative humidity: range 0-95% relative humidity; for form change after DVS analysis (XRPD of the remaining material): XRPD after DVS at 25° C., 0-95% relative humidity
Protocol: Dynamic Vapor Sorption (DVS) Analysis. DVS was measured via a SMS (Surface Measurement Systems) DVS Intrinsic. The relative humidity at 25° C. were calibrated against deliquescence point of LiCl, Mg(NO3)2 and KCl. [table] The hygroscopicity of the cocrystal was determined by DVS analysis at 25° C., over a range of 0-95% relative humidity. […]

[3] = male Sprague Dawley rats, fasted
[4] = male Sprague Dawley rats, vs IV AUCinf, dose-corrected
[5] = listed as Maleic Acid Cocrystal Type A
[6] = listed as Citric Acid Cocrystal Type A

Compound: C[C@@H](Nc1nc(N[C@H](C)C(F)(F)F)nc(-c2cccc(Cl)n2)n1)C(F)(F)F [Compound 1, 6-(6-chloropyridin-2-yl)-N^2,N^4-bis((R)-1,1,1-trifluoropropan-2-yl)-1,3,5-triazine-2,4-diamine]
inhibitor of mutant IDH1 protein (mutant IDH1): inhibitor
inhibitor of mutant IDH2 protein (mutant IDH2): inhibitor
AUC(0-inf) ([1]; Sprague-Dawley, iv, 1 mg/kg, IV bolus 1 mg/kg, male Sprague-Dawley rats, historical data): 4800 ng·h/mL
bioavailability ([1]; Sprague-Dawley, iv, 1 mg/kg, IV bolus 1 mg/kg, male Sprague-Dawley rats, historical data (reference)): 100%

Compound: C[C@@H](Nc1nc(N[C@H](C)C(F)(F)F)nc(-c2cccc(Cl)n2)n1)C(F)(F)F [Citrate Cocrystal Type A]
AUC(0-inf) ([1]; Sprague Dawley, po, 11.7 mg/kg, oral gavage 11.7 mg/kg (as free Compound 1), male Sprague Dawley rats, fasted): 58200 ng·h/mL
bioavailability ([1]; Sprague Dawley, po, 11.7 mg/kg, oral gavage 11.7 mg/kg, male Sprague Dawley rats, vs IV AUCinf, dose-corrected): 104%
bioavailability (in words) ([1]; summary statement referring to the Examples): favorable bioavailability
water uptake at 80% relative humidity [2, 6]: 0.5%
hygroscopicity [2, 6]: slightly hygroscopic
hygroscopicity ([2]; listed as citric acid cocrystal type A): low hygroscopicity
form change after DVS analysis (XRPD of the remaining material) [2]: no form change had occurred

The next lines start with the values.

AUCinf [1, 3]: 38625 ng·h/mL
Absolute % F [1, 4]: 80.4%
water uptake at 80% relative humidity [2, 5]: 2.0%
hygroscopicity [2, 5]: slightly hygroscopic
form change after DVS analysis (XRPD of the remaining material) [2]: no form change had occurred
Compound: C[C@@H](Nc1nc(N[C@H](C)C(F)(F)F)nc(-c2cccc(Cl)n2)n1)C(F)(F)F [Maleate Cocrystal Type A]

AUCinf [1, 3]: 10846 ng·h/mL
Absolute % F [1, 4]: 22.6%
Compound: C[C@@H](Nc1nc(N[C@H](C)C(F)(F)F)nc(-c2cccc(Cl)n2)n1)C(F)(F)F [Free Form C]

AUCinf [1, 3]: 30698 ng·h/mL
Absolute % F [1, 4]: 63.9%
Compound: C[C@@H](Nc1nc(N[C@H](C)C(F)(F)F)nc(-c2cccc(Cl)n2)n1)C(F)(F)F [Free Form A]
